From patent US20230012936A1, “COMBINATION THERAPY USING GLUCAGON AND GLP-1 CO-AGONISTS FOR THE TREATMENT OF OBESITY” (MEDIMMUNE, LLC, priority 2019, published 2023) come the findings set out here.

Holding throughout (type): in vivo, human
The subject of test [1] is overweight/obese subjects with Type 2 Diabetes Mellitus (T2DM). The experiment in a line: Pancreatic and incretin hormone profiles during the MMTT. The protocol:
(§1) Subjects were admitted to the unit on Day −2 and on Day 27. On Day −1 and on Day 28, following a minimum 10 hour fast, a blood sample for glucose metabolism panel (glucose, insulin, C-peptide, glucagon, and active GLP-1) was taken immediately prior to the subject drinking a standardized mixed meal (t=“0 minutes”). The subject then consumed a can of Ensure Plus, which is a nutritional supplement containing the components of fat, carbohydrate, and protein that make up a standard mixed-meal tolerance test (MMTT). After the meal, timed, serial blood samples were obtained for measurement of glucose and parameters related to glucose metabolism (with no additional food intake during this time). The MMTT was performed on Day-1 and Day 28.
(§2) Blood samples for the glucose metabolism panel were drawn at t=“0 minutes” (before meal) and at 15, 30, 45, 60, 90, 120, 180, and 240 minutes (±5 minutes) after consumption of the standardized meal. Additional sampling for glucagon, insulin, C-peptide, and glucose was taken at 6, 8, 12, and 24 hours (±30 minutes) post-administration (t=“0 minutes”) of the standardized meal on Day −1 and 28.
(§3) The change and percent change from baseline (Day-1) to the end of the 28 days of treatment (Day 28) in glucose AUC0-4 h were determined as measured by the MMTT. In addition, the change from baseline (Day −1) to Day 28 in active GLP-1, glucagon, insulin, and C-peptide AUC0-4 h were also measured by MMTT.
The changes in insulin and C-peptide AUC004h from baseline to Day 28 were assessed. At baseline, the mean insulin AUC0-4 h was higher in the cotadutide group compared with the placebo group (91.768 vs 78.472 hr·mU/L, respectively). There was no meaningful difference from baseline in LS mean insulin AUC0-4 h at Day 28 between the cotadutide and placebo groups (−0.08 and 2.78 hr·mU/L, respectively; LS mean difference: −2.86 hr·mU/L; p=0.7760). At baseline, the mean C-peptide AUC0-4 h was similar in the cotadutide and placebo groups (11.278 vs 10.605 hr. μg/L, respectively). There was no meaningful difference from baseline in LS mean C-peptide AUC0-4 h at Day 28 between the cotadutide and placebo groups (0.32 and −0.29 hr. μg/L, respectively (LS mean difference: […]; p=0.4345).

The test system is the same in test [2]. The experiment in a line: Hemoglobin A1c (HbA1c), Phase 2a study. How it is done: The change in hemoglobin A1c (glycated hemoglobin; HbA1c) from baseline to Day 28 was assessed.
Test [3] has the same test system. The test is described as follows: Mixed-meal tolerance test (MMTT) plasma glucose AUC0-4 h, Phase 2a study. The protocol:
as §1, §2, §3

The mark [4] stands for this setting: Day 28, ITT, metformin and dapagliflozin background.
The mark [5] stands for this setting: baseline to Day 28, vs placebo, ANCOVA.

For `CCCCCCCCCCCCCCCC(=O)N[C@@H](CCC(=O)NCCCC[C@H](NC(=O)[C@H](CC(=O)O)NC(=O)[C@H](CO)NC(=O)[C@@H](NC(=O)[C@H](Cc1ccccc1)NC(=O)[C@@H](NC(=O)CNC(=O)[C@H](CCC(N)=O)NC(=O)[C@H](CO)NC(=O)[C@@H](N)Cc1c[nH]cn1)[C@@H](C)O)[C@@H](C)O)C(=O)N[C@@H](CO)C(=O)N[C@@H](CCC(=O)O)C(=O)N[C@@H](Cc1ccc(O)cc1)C(=O)N[C@@H](CC(C)C)C(=O)N[C@@H](CC(=O)O)C(=O)N[C@@H](CO)C(=O)N[C@@H](CCC(=O)O)C(=O)N[C@@H](CCCNC(=N)N)C(=O)N[C@@H](C)C(=O)N[C@@H](CCCNC(=N)N)C(=O)N[C@@H](CC(=O)O)C(=O)N[C@@H](Cc1ccccc1)C(=O)N[C@H](C(=O)N[C@@H](C)C(=O)N[C@@H](Cc1c[nH]c2ccccc12)C(=O)N[C@@H](CC(C)C)C(=O)N[C@@H](CCC(=O)O)C(=O)N[C@@H](C)C(=O)NCC(=O)NCC(=O)O)C(C)C)C(=O)O` [Cotadutide], in test [1] (Day 28), the “C-peptide AUC0-4 h, change from baseline, LS mean” value came out at 0.32 µg·h/L; the “GLP-1 (active form) AUC0-4 h, change from baseline, LS mean” value is -131.67 ng·h/L; the “Glucagon AUC0-4 h, change from baseline, LS mean” value is -12.52 ng·h/L; the “Insulin AUC0-4 h, change from baseline, LS mean” value is reported as −0.08 hr·mU/L. Further, in test [1] (Day 28, vs placebo), the “GLP-1 (active form) AUC0-4 h, change from baseline, LS mean difference” value is -0.73 ng·h/L; the Glucagon AUC0-4 h, change from baseline, LS mean difference was determined as 11.3 ng·h/L; the “Insulin AUC0-4 h, change from baseline, LS mean difference” value is listed as −2.86 hr·mU/L. Further, in test [2] (Day 28, ITT), the “Hemoglobin A1c, Day 28, mean” value came to 6.75% and the “Hemoglobin A1c, Day 28, median” value stood at 6.65%. Besides, in test [2] (baseline to Day 28), the “Hemoglobin A1c, change from baseline, mean” value was −1.04% and the “Hemoglobin A1c, change from baseline, median” value is reported as −1.10%. In addition, the “Hemoglobin A1c, change from baseline, LS mean” value in test [2] (baseline to Day 28, ANCOVA) is −1.03%. Also, in test [2] (baseline to Day 28, vs placebo), the “Hemoglobin A1c, change from baseline, LS mean difference” value is listed as −0.58%. In addition, in test [3] (setting [4]), the “Plasma glucose AUC0-4 h after MMTT, Day 28, mean” value was determined as 523.72 mg·h/dL and the “Plasma glucose AUC0-4 h after MMTT, Day 28, median” value was 481.57 mg·h/dL. In test [3] (baseline to Day 28, ANCOVA), the “Plasma glucose AUC0-4 h after MMTT, change from baseline, LS mean” value is -154.37 mg·h/dL and the “Plasma glucose AUC0-4 h after MMTT, percent change from baseline, LS mean” value was −22.30%. In test [3] (baseline to Day 28, ITT), the “Plasma glucose AUC0-4 h after MMTT, change from baseline, mean” value is -151.29 mg·h/dL; the “Plasma glucose AUC0-4 h after MMTT, change from baseline, median” value is -148.29 mg·h/dL; the “Plasma glucose AUC0-4 h after MMTT, percent change from baseline, mean” value is −22.03%; the “Plasma glucose AUC0-4 h after MMTT, percent change from baseline, median” value is −25.55%. In addition, in test [3] (setting [5]), the “Plasma glucose AUC0-4 h after MMTT, change from baseline, LS mean difference” value was -143.09 mg·h/dL and the “Plasma glucose AUC0-4 h after MMTT, percent change from baseline, LS mean difference” value was −22.17%.
